Results from PubChem BioAssay AID624405 (Broad Institute, 2012).
Results filed as inconclusive are left out.

What follows are molecules tested on C2C12 myotubes + simvastatin, ATP luminescence, 48 h (assay: rescue of simvastatin-induced ATP loss – cell-based, C2C12 myotubes, ATP luminescence, cherry pick, dose response (AID 624405);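 note: myotubes are challenged with simvastatin at 10 µM to lower ATP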).

Row | Compound | AC40 [µM]
1 | C/C=C/Cn1c(SCc2ccccc2)nc2c1c(=O)[nH]c(=O)n2C | 0.556
2 | CCCn1c(NC(=O)c2ccco2)nc2ccccc21 | 1.39
3 | Cc1ccc(C(C(=O)NC2CCCC2)N(C(=O)Cc2cccs2)c2ccc3c(c2)OCCO3)cc1 (centres undefined) | 19
4 | CCSC1(SCC)N=C(N)C2(C#N)C(c3ccc(F)cc3)C12C#N (centres undefined) | 6.36
5 | CCc1ccc(CNCc2cccnc2)cc1 | 17.7
6 | CCCCNc1oc(-c2cccs2)nc1S(=O)(=O)c1ccccc1 | 7.73
7 | Oc1ccc(Cl)cc1C1=NNC(c2cccs2)C1 (centres undefined) | 11.4
8 | COCc1nc2ccccc2n1CCCOc1ccccc1 | 13.4
9 | C[C@@H]1CN([C@@H](C)CO)C(=O)Cc2cc(NC(=O)CCCCCC(=O)Nc3ccccc3N)ccc2O[C@H]1CN(C)Cc1ccccc1 | 12.2
10 | COc1ccc(S(=O)(=O)N2CCCCC2)cc1C(C)C | 8.77
11 | Cc1c(NC(=O)CSc2ccccn2)c(=O)n(-c2ccccc2)n1C | 10.7
12 | O=C1c2ccccc2-c2onc3ccc(Oc4ccccc4)c1c23 | 5.91
13 | C[C@H]1CN([C@@H](C)CO)C(=O)c2cc(NC(=O)Nc3cccc4ccccc34)ccc2O[C@@H]1CN(C)Cc1ccc(C(=O)Nc2ccccc2N)cc1 | 17.7
14 | O=c1[nH]cnc2scc(-c3ccsc3)c12 | 13.2
15 | C[C@H](CO)N1C[C@H](C)[C@@H](CN(C)Cc2ccc(C(=O)Nc3ccccc3N)cc2)Oc2ccc(NC(=O)Nc3ccc4c(c3)OCO4)cc2CC1=O | 11.7
16 | COc1ccc(C#Cc2cnc3c(c2)C(=O)N([C@H](C)CO)C[C@H](C)[C@@H](CN(C)C(=O)Nc2cccc(OC)c2)O3)cc1 | 1.38
17 | CCOc1c(S(=O)(=O)N2CCCC2)ccc(Cl)c1Cl | 5.43
18 | Cc1cc(C)c(C)c(S(=O)(=O)NCC(=O)N2CCCC2)c1C | 13.2
19 | CCCCCn1c(=O)c(C(=O)c2ccccc2)nc2ccccc21 | 15.6
20 | Cc1ccc(-c2nnc(CSc3nnc(COc4cccc5ccccc45)n3-c3ccccc3)o2)cc1 | 18.2
21 | CCC(C(=O)N(C(C)C)C(C)C)c1ccccc1 (centres undefined) | 18.8
22 | Cc1ccc(O)c(NC(=O)c2cc(-c3cccs3)on2)c1 | 14.3
23 | CC(=O)c1ccc(-c2cc([C@H]3[C@H]4C=CC[C@@H](C)[C@@H]4C(=O)N3Cc3ccccc3)ccc2F)cc1 | 8.76

Row | Compound | AC40 [µM]
24 | O=C(CCNS(=O)(=O)c1ccc(Br)cc1)NCc1ccc2c(c1)OCO2 | 14.8
25 | COc1cc(CNc2ncnc3c2ncn3[C@H]2CN(Cc3cccc4ccccc34)C[C@@H](CO)O2)cc(OC)c1OC | 1.36
26 | COc1ccc(S(=O)(=O)Nc2ccc3c(c2)OCCO3)cc1Cl | 1.46
27 | C[C@H](CO)N1C[C@H](C)[C@H](CN(C)Cc2ccc(C(=O)Nc3ccccc3N)cc2)Oc2ccc(NC(=O)Nc3cccc4ccccc34)cc2CC1=O | 10.5
28 | CCS(=O)(=O)c1ncc(Cl)c(C(=O)Nc2ccc(C)cc2)n1 | 2.8
29 | CCOC(=O)N1CCN(C(=O)CN(Cc2ccccc2)S(=O)(=O)c2ccc(OC)c(Cl)c2)CC1 | 15.7
30 | C=CCn1c(SCC(=O)NC2CCCC2)nc2scc(-c3ccco3)c2c1=O | 9.19
31 | CC(C)OC(=O)N(C)C[C@@H]1OCc2ccccc2-c2c(n(C)c3ccccc23)C(=O)N([C@H](C)CO)C[C@H]1C | 18.1
32 | C[C@H](CO)N1C[C@H](C)[C@@H](CN(C)Cc2ccc(Cl)c(Cl)c2)Oc2ccc(NS(=O)(=O)c3ccc(F)cc3)cc2CC1=O | 19
33 | N#C[C@@H]1[C@@H](c2ccc(-c3cccc(F)c3)cc2)[C@H](CO)N1C(=O)NC1CCCC1 | 0.38
34 | O=C1C[C@@H]2c3c(cccc3CN1Cc1ccccc1F)C[C@@H](O)[C@H]2O | 17.2
35 | CCOc1ccccc1NC(=O)c1ccccc1N(C)S(C)(=O)=O | 5.38
36 | CCOC(=O)N1CCN(C(=O)COc2ccc(S(=O)(=O)NC3CCCCC3)cc2C)CC1 | 14.1
37 | C[C@@H]1CN([C@H](C)CO)C(=O)Cc2cc(NS(=O)(=O)c3ccc(Cl)cc3)ccc2O[C@H]1CN(C)CC1CCCCC1 | 9.96
38 | Cc1ccc(C)c(NC(=O)C2CC3c4ccccc4C2c2ccccc23)c1 (centres undefined) | 3.1
39 | CC(C)CC#Cc1cnc2c(c1)C(=O)N([C@H](C)CO)C[C@H](C)[C@@H](CN(C)C(=O)Cc1ccccc1)O2 | 9.7
40 | CCSc1nnc(NC(=O)c2c(-c3ccccc3Cl)noc2C)s1 | 13.9
41 | C[C@H]1CN([C@@H](C)CO)C(=O)Cc2cc(NC(=O)CCCCCC(=O)Nc3ccccc3N)ccc2O[C@H]1CN(C)Cc1ccc(-c2ccccc2)cc1 | 7.68
42 | C[C@H]1CN([C@@H](C)CO)S(=O)(=O)c2ccc(C#CC3CC3)cc2O[C@H]1CN(C)C(=O)Nc1cc(F)ccc1F | 3.66
43 | CC1(Cc2cccc(F)c2)C(=O)Nc2ccc(S(=O)(=O)NC3CCCCC3)cc21 (centres undefined) | 1.66
44 | Cc1ccc(S(=O)(=O)N2CCN(S(=O)(=O)c3ccc(C)cc3)C2c2ccccc2)cc1 | 18.6
45 | C=CCn1c(=O)[nH]c(=O)c2c(N)c(C(=O)c3ccc(OC)cc3)sc21 | 14.5
46 | C[C@H]1CN([C@@H](C)CO)C(=O)c2cc(NC(=O)Nc3cccc4ccccc34)ccc2O[C@H]1CN(C)Cc1ccc(C(=O)Nc2ccccc2N)cc1 | 5.45

Row | Compound | AC40 [µM]
47 | C[C@@H]1CN([C@H](C)CO)C(=O)Cc2cc(NC(=O)CCCCCC(=O)Nc3ccccc3N)ccc2O[C@@H]1CN(C)Cc1ccccc1 | 14.4
48 | C[C@@H]1CN([C@H](C)CO)C(=O)c2cc(NC(=O)Cc3cn(C)c4ccccc34)ccc2O[C@@H]1CN(C)Cc1ccc(C(=O)Nc2ccccc2N)cc1 | 9.69
49 | N#C[C@@H]1[C@@H](c2ccc(-c3ccc(F)cc3)cc2)[C@H](CO)N1C(=O)Cc1ccccc1 | 9.36
50 | COc1ccc(C(=O)Nc2ccccc2N2CCOCC2)cc1Br | 12.1
51 | C[C@@H]1CN([C@H](C)CO)C(=O)Cc2cc(NS(=O)(=O)c3ccc(Cl)cc3)ccc2O[C@H]1CN(C)Cc1ccccc1 | 4.44
52 | C[C@H]1CN([C@@H](C)CO)C(=O)Cc2cc(NC(=O)CCCCCC(=O)Nc3ccccc3N)ccc2O[C@H]1CN(C)Cc1ccccc1 | 3.02
53 | Fc1ccc(-c2csc(Nc3ccccn3)n2)cc1 | 7.31
54 | COc1ccc(C)cc1C(=O)C1CC(C(=O)O)C(C)(C)C1C (centres undefined) | 10.6
55 | Cc1cccc(-c2nnc3n2N=C(c2ccccc2Br)CS3)c1 | 0.28
56 | c1ccc(-c2csc3nnc(SCc4ccc5c(c4)OCCO5)n23)cc1 | 3.7
57 | CCn1c(CNc2ccc(F)cc2)nnc1SCC(=O)Nc1ccc(OC)cc1 | 5.81
58 | COc1ccc(S(=O)(=O)Nc2cccc3c2O[C@H](CN(C)C(=O)Nc2ccc(F)cc2)[C@H](C)CN([C@@H](C)CO)C3=O)cc1 | 6.89
59 | Cc1cc(C(=O)COC(=O)C2=NNC(=O)CC2)c(C)n1-c1ccccc1 | 11.7
60 | C[C@H](CO)N1C[C@H](C)[C@H](CN(C)C(=O)Nc2ccc(F)cc2)Oc2ncc(C#Cc3ccc(C(F)(F)F)cc3)cc2C1=O | 13.5
61 | COc1ccc(CN(C)C[C@H]2Oc3ccc(NS(=O)(=O)c4ccc(Cl)cc4)cc3CC(=O)N([C@@H](C)CO)C[C@@H]2C)cc1 | 0.484
62 | CC(=O)Nc1nc2n(n1)C(c1ccc(F)cc1)C=C(c1ccccc1)N2 (centres undefined) | 1.77
63 | COc1ccc(S(=O)(=O)Nc2ccc3c(c2)CC(=O)N([C@H](C)CO)C[C@@H](C)[C@H](CN(C)CC2CCCCC2)O3)cc1 | 2.63
64 | C[C@H](CO)N1C[C@H](C)[C@@H](CN(C)Cc2ccc(Oc3ccccc3)cc2)Oc2c(NC(=O)Nc3cccc4ccccc34)cccc2C1=O | 7.98
65 | C[C@H](CO)N1C[C@H](C)[C@@H](CN(C)Cc2ccc(Oc3ccccc3)cc2)Oc2ccc(NC(=O)C3CCCCC3)cc2CC1=O | 8.63
66 | Clc1ccc(Cn2ncc3c(N4CCCCC4)ncnc32)cc1 | 15.8
67 | C[C@H]1CN([C@@H](C)CO)C(=O)Cc2cc(NC(=O)CCCCCC(=O)Nc3ccccc3N)ccc2O[C@H]1CN(C)Cc1ccc(Cl)c(Cl)c1 | 12.6
68 | O=C(NCC(c1cccnc1)N1CCN(c2ccc(F)cc2)CC1)c1ccc2c(c1)OCO2 (centres undefined) | 5.7
69 | C[C@H]1CN([C@@H](C)CO)C(=O)c2cccc(NC(=O)Nc3ccc(C(F)(F)F)cc3)c2O[C@H]1CN(C)CC1CCCCC1 | 19.1

Row | Compound | AC40 [µM]
70 | COc1ccc(S(=O)(=O)N(C)C[C@@H]2Oc3ccc(NS(=O)(=O)c4ccc(Cl)cc4)cc3CC(=O)N([C@@H](C)CO)C[C@H]2C)cc1 | 11.8
71 | C[C@@H]1CN([C@@H](C)CO)C(=O)c2cccc(NC(=O)Nc3ccccc3)c2O[C@@H]1CN(C)S(=O)(=O)c1ccc(F)cc1 | 15.1
72 | COc1cccc(OC)c1C(=O)N1CCN(S(=O)(=O)c2ccc(C)cc2)CC1 | 0.233
73 | C[C@H]1CN([C@@H](C)CO)C(=O)Cc2cc(NC(=O)CCCCCC(=O)Nc3ccccc3N)ccc2O[C@H]1CN(C)CC1CCCCC1 | 2.67
74 | Cc1ccc(NS(=O)(=O)c2ccc(-n3cccn3)cc2)cc1F | 5.32
75 | CCCCn1c(C(C)NC(=O)c2cccs2)nc2ccccc21 (centres undefined) | 3.75
76 | C[C@H]1CN([C@@H](C)CO)C(=O)c2cc(NC(=O)Cc3cn(C)c4ccccc34)ccc2O[C@H]1CN(C)Cc1ccc(C(=O)Nc2ccccc2N)cc1 | 3.17
77 | C[C@H]1C[C@@H](C)C(=O)[C@@H]([C@H](O)CC2CC(=O)NC(=O)C2)C1 | < 0.16
78 | C[C@@H]1CN([C@H](C)CO)C(=O)c2cccc(NC(=O)c3nc4ccccc4s3)c2O[C@@H]1CN(C)Cc1ccc(C(=O)Nc2ccccc2N)cc1 | 0.462
79 | C[C@H](CO)N1C[C@H](C)[C@@H](CN(C)Cc2ccc(Cl)c(Cl)c2)Oc2ccc(NS(=O)(=O)c3cn(C)cn3)cc2CC1=O | 5.29
80 | CCCCCCn1c(C(C)O)nc2ccccc21 (centres undefined) | 1.94
81 | Cc1nn(Cc2ccccc2Cl)c2sc(C(=O)NCc3ccc4c(c3)OCO4)cc12 | 12.5
82 | C[C@H](CO)N1C[C@H](C)[C@H](CN(C)Cc2ccc(Cl)c(Cl)c2)Oc2ccc(NC(=O)CCCCCC(=O)Nc3ccccc3N)cc2CC1=O | 13.4
83 | COc1ccc(S(=O)(=O)Nc2ccc3c(c2)CC(=O)N([C@H](C)CO)C[C@H](C)[C@@H](CN(C)Cc2ccc(Cl)c(Cl)c2)O3)cc1 | 15.9
84 | COc1ccc(N(Cc2cc3ccccc3[nH]c2=O)S(=O)(=O)c2ccccc2)cc1 | 5.81
85 | O=C(Nc1ccc(S(=O)(=O)N2CCCCC2)cc1)C1CCN(C(=O)c2ccco2)CC1 | 5.15
86 | Oc1ccc(-c2csc(Nc3ccc4c(c3)OCO4)n2)c(O)c1 | 10.5
87 | CCOc1[nH]n(-c2ccccc2)c(=O)c1C=Nc1ccc(Cl)cc1 | 11.9
88 | O=C(CN1CCN(c2nc(-c3ccccc3)cs2)CC1)NCc1ccc2c(c1)OCO2 | 10
89 | C[C@H](CO)N1C[C@H](C)[C@H](CN(C)Cc2ccc(C(=O)Nc3ccccc3N)cc2)Oc2ccc(NC(=O)Nc3ccc(F)cc3)cc2CC1=O | 1.97
